In brackets after ≈: the same amount, converted by molar mass. Activity calls are given as the source filed them. The rule behind the calls is not given here.
Columns and labels:
Epidermophyton floccosum = assay: Antifungal activity against Epidermophyton floccosum after 7 days by tube dilution method; assay type: functional; details: 168 h
Pleurotus ostreatus = assay: Antifungal activity against Pleurotus ostreatus after 7 days by tube dilution method; assay type: functional; details: 168 h
Shigella boydii = assay: Antibacterial activity against Shigella boydii by agar well diffusion method; assay type: functional, organism-based
Escherichia coli = assay: Antibacterial activity against Escherichia coli by agar well diffusion method; assay type: functional, organism-based
[1] = system: Corynebacterium diphtheriae; assay: Antibacterial activity against Corynebacterium diphtheriae by agar well diffusion method; assay type: functional, organism-based
Enterococcus faecalis = assay: Antibacterial activity against Streptococcus faecalis by agar well diffusion method; assay type: functional, organism-based
[2] = system: Salmonella enterica subsp. enterica serovar Typhi str. CT18; assay: Antibacterial activity against Salmonella typhi by agar well diffusion method; assay type: functional, organism-based
Staphylococcus aureus = assay: Antibacterial activity against Staphylococcus aureus by agar well diffusion method; assay type: functional, organism-based

COC1=CC(=O)C[C@@H](C)[C@]12Oc1c(Cl)c(OC)cc(OC)c1C2=O [GRISEOFULVIN]
MIC (Epidermophyton floccosum): 250 µg/mL (≈ 709 µM)
MIC (Pleurotus ostreatus): 250 µg/mL (≈ 709 µM)

Cc1ccc(-c2ccc(C#CCCOC(=O)CC(C)C)s2)s1
Activity (Shigella boydii): Active
Activity (Escherichia coli): Active
MIC (Epidermophyton floccosum): 200 µg/mL (≈ 602 µM)
Activity [1]: Active
Activity (Enterococcus faecalis): Active
Activity [2]: Active
MIC (Pleurotus ostreatus): 200 µg/mL (≈ 602 µM)
Activity (Staphylococcus aureus): Active

C=CC#Cc1ccc(-c2ccc(COC(=O)CC(C)C)s2)s1
MIC (Epidermophyton floccosum): 200 µg/mL (≈ 605 µM)
MIC (Pleurotus ostreatus): 200 µg/mL (≈ 605 µM)
